According to publication PMC8056227, “Deverra tortuosa (Desf.) DC from Saudi Arabia as a new source of marmin and furanocoumarins derivatives with α-glucosidase, antibacterial and cytotoxic activities” (Heliyon, 2021):

Tests used:
[1] = system: HCT116 (colorectal carcinoma) cells; assay: MTT cytotoxicity assay, HCT116; assay type: cell-based; conditions: Homo sapiens, HCT-116, 72 h, read-out: percentage of inhibition, HCT-116
Experimental: (§1) In the present study, two cancer cell lines were tested: HCT116 (colorectal carcinoma) and MCF-7 (breast cancer) (American Type Culture Collection, USA). Fetal calf serum (FCS: 10 %) and L-glutamine (2 mM) were used to make complete growth medium to conserve the cell lines (RPMI: Roswell Park Memorial Institute, France). Cell lines were incubated at 37 °C under atmosphere conditions of CO2 (5%). All tests were performed when the cells reached 80% confluence, and a trypan blue exclusion assay was used to test the viability of the cell lines ([Louis and Siegel, 2011]).
The cytotoxicity of the isolated compounds against HCT116 (colorectal carcinoma) and MCF-7 (breast cancer) cells was evaluated spectrophotometrically through an MTT assay. The assay was performed in 96-well microtiter plates ([Bekir et al., 2013]). The concentrations of HCT-116 and MCF-7 cells were fixed at 10 × 10^3 and 12 × 10^3 cells/well, respectively. The adherent cells were incubated overnight (37 °C) in a 5% enriched CO2 atmosphere. […] Cell viability was measured using formula II:II % Inhibition = 100∗[(Abs control – Abs blank control)/(Abs sample- Abs blank sample)]where Abs control is the absorbance measured of the total cell activity as described without any inhibition; Abs blank control is the absorbance of MTT substrate; and Abs sample is the absorbance of each inhibitor compound sample.

[2] = target: α-glucosidase; assay: α-Glucosidase inhibitory activity (PNPG substrate); assay type: biochemical; conditions: pH 6.8, 37 °C, 30 min
Experimental: (2013)]. The substrate P-nitrophenyl-α-D-glucopyranoside (PNPG) was used for this experiment. Dimethyl sulfoxide (DMSO) was used to prepare different concentrations of the compounds (10–1000 μM). […] Afterwards, 40 μL of PNPG solution (0.375 mM) prepared in phosphate buffer (pH = 6.8) was added to the mixture and then incubated (37 °C for 30 min). 80 μL of Na2CO3 (0.2 M) prepared in phosphate buffer was added to the mixture. The absorbance was measured at 405 nm, and the measurement was replicated 3 times. The percentage of inhibition (%) reflects the α-glucosidase inhibitory activity and was calculated by formula (I):(I) α-glucosidase inhibition activity (%) = [(Acontrol – Asample)/Acontrol] × 100where Asample is the absorbance (405 nm) in the presence of the isolated compound and Acontrol is the absorbance (405 nm) of the control (A control consists of 20 μL potassium phosphate buffer instead of α-glucosidase solution).

[3] = system: Escherichia. coli: ATCC 25922; parameters: method as in Tsassi et al., 2010; conditions: previous studies on marmin; ref Tsassi et al., 2010; cited from earlier work
[4] = system: MCF-7 (breast cancer) cells; assay: MTT cytotoxicity assay, MCF-7; assay type: cell-based; conditions: Homo sapiens, MCF7, 72 h, read-out: percentage of inhibition, MCF-7
Experimental: as §1
The cytotoxicity of the isolated compounds against HCT116 (colorectal carcinoma) and MCF-7 (breast cancer) cells was evaluated spectrophotometrically through an MTT assay. The assay was performed in 96-well microtiter plates ([Bekir et al., 2013]). The concentrations of HCT-116 and MCF-7 cells were fixed at 10 × 10^3 and 12 × 10^3 cells/well, respectively. The adherent cells were incubated overnight (37 °C) in a 5% enriched CO2 atmosphere. […] After removing the medium, incubated cells (37 °C) were mixed with 50 μL of MTT solution (3 mg/mL in phosphate-buffered saline, PBS) for 20–40 min. The […] proceeded by adding 80 μL of 100% DMSO. The measurement of the obtained reaction was taken spectrophotometrically at 540 nm. As a positive control, Doxorubicin, a conventional anticancer drug, was used. Cell viability was measured using formula II:II % Inhibition = […]where Abs control is the absorbance measured of the total cell activity as described without any inhibition; Abs blank control is the absorbance of MTT substrate; and Abs sample is the absorbance of each inhibitor compound sample.

[5] = system: Salmonella typhimurium: ATCC 14028; assay: Antibacterial well diffusion, S. typhimurium; assay type: cell-based; parameters: dose or concentration left out as unconfirmed
Excerpt: (§2) ATCC strains (American Type Culture Collection) were purchased from BD (Becton, Dickinson and Company). These strains were primarily activated in brain heart infusion broth and then grown on nonselective media nutrient agar (NA). A total of 7 bacterial strains (Escherichia. coli: ATCC 25922, Klebsiella pneumonia: ATCC 700603, Proteus mirabilis: ATCC 14153, Salmonella typhimurium: ATCC 14028, Pseudomonas aeruginosa: ATCC 254992, Staphylococcus aureus: ATCC 254996 and Enterococcus faecalis: ATCC 29212) were tested for antibacterial activity.
(§3) The 0.5 Macfarland standards were used to prepare the bacterial inoculum from log phase bacterial growth. Muller-Hinton agar (MHA) media plates were prepared aseptically in a safety cabinet; the medium was used to evaluate antibacterial activity. Sterile cork borer was used to make five wells (6 mm). MHA medium was swabbed with fresh culture (24 h ATCC bacterial strains). […] As a positive control, 15 μg of tetracycline was used and the negative control consists of 50 μL DMSO. The test was conducted with 3 replications. The plates were incubated according to Clinical and Laboratory Standards Institute guidelines ([CLSI 2017]) and the experiments were carried out aerobically at 35–37 °C for 18–20 h. The diameter of the inhibition zone around the wells was measured using a ruler, and the mean and standard deviation were calculated for three readings.

[6] = system: Enterococcus faecalis: ATCC 29212; assay: Antibacterial well diffusion, E. faecalis; assay type: cell-based; parameters: dose or concentration left out as unconfirmed
Excerpt: as §2, §3

[7] = system: Klebsiella pneumonia: ATCC 700603; assay: Antibacterial well diffusion, K. pneumonia; assay type: cell-based; parameters: zone of inhibition: dose or concentration left out as unconfirmed; conditions: for antibacterial activity in words, K. pneumonia: 1 mg/mL; for zone of inhibition: Klebsiella pneumoniae, ATCC700603, range stated over 3 compounds and 3 strains
Excerpt: as §2, §3

[8] = system: Proteus mirabilis: ATCC 14153; assay: Antibacterial well diffusion, P. mirabilis; assay type: cell-based; parameters: dose or concentration left out as unconfirmed
Excerpt: as §2, §3

[9] = system: Pseudomonas aeruginosa: ATCC 254992; assay: Antibacterial well diffusion, P. aeruginosa; assay type: cell-based; parameters: dose or concentration left out as unconfirmed; conditions: ATCC254992, range stated over 3 compounds and 3 strains
Excerpt: as §2
(§4) The 0.5 Macfarland standards were used to prepare the bacterial inoculum from log phase bacterial growth. Muller-Hinton agar (MHA) media plates were prepared aseptically in a safety cabinet; the medium was used to evaluate antibacterial activity. Sterile cork borer was used to make five wells (6 mm). MHA medium was swabbed with fresh culture (24 h ATCC bacterial strains). 50 μL of the tested compounds (0.5 mg/mL) prepared in DMSO were dispensed in the wells. As a positive control, 15 μg of tetracycline was used and the negative control consists of 50 μL DMSO. The test was conducted with 3 replications. The plates were incubated according to Clinical and Laboratory Standards Institute guidelines ([CLSI 2017]) and the experiments were carried out aerobically at 35–37 °C for 18–20 h. The diameter of the inhibition zone around the wells was measured using a ruler, and the mean and standard deviation were calculated for three readings.

[10] = system: Escherichia. coli: ATCC 25922; assay: Antibacterial well diffusion, E. coli; assay type: cell-based; parameters: dose or concentration left out as unconfirmed; conditions: ATCC25922, range stated over 3 compounds and 3 strains
Excerpt: as §2, §4

SMILES | IC50 [2] [µM] | inhibition at 100 µM [1] [%] | inhibition zone, E. coli (previous studies) [3] [mm] | inhibition at 100 µM [4] [%] | zone of inhibition ([5]; Salmonella enterica, read-out: inhibition zone (IZ), S. typhimurium) [mm] | zone of inhibition ([6]; Enterococcus faecalis, ATCC29212, read-out: inhibition zone (IZ), E. faecalis) [mm] | antibacterial activity in words, S. typhimurium [5] | antibacterial activity in words, K. pneumonia [7] | zone of inhibition [7] [mm] | antibacterial activity in words, P. mirabilis [8] | antibacterial activity in words, E. faecalis [6] | zone of inhibition [9] [mm] | zone of inhibition [10] [mm]
COc1c2ccoc2cc2oc(=O)ccc12 [Compound 4, Bergapten] | – | – | – | – | – | – | did not seem to be active | did not seem to be active | 6 to 12 | did not seem to be active | did not seem to be active | 6 to 12 | 6 to 12
COc1c2ccoc2c(OC)c2oc(=O)ccc12 [Compound 5, Isopimpinellin] | – | – | – | 30.6 | – | – | did not seem to be active | did not seem to be active | 6 to 12 | did not seem to be active | did not seem to be active | 6 to 12 | 6 to 12

Further lines, with some results ahead:

IC50 [2] [µM] | SMILES | inhibition at 100 µM [1] [%] | inhibition zone, E. coli (previous studies) [3] [mm] | inhibition at 100 µM [4] [%] | zone of inhibition ([5]; Salmonella enterica, read-out: inhibition zone (IZ), S. typhimurium) [mm] | zone of inhibition ([6]; Enterococcus faecalis, ATCC29212, read-out: inhibition zone (IZ), E. faecalis) [mm] | antibacterial activity in words, S. typhimurium [5] | antibacterial activity in words, K. pneumonia [7] | zone of inhibition [7] [mm] | antibacterial activity in words, P. mirabilis [8] | antibacterial activity in words, E. faecalis [6] | zone of inhibition [9] [mm] | zone of inhibition [10] [mm]
186 ± 8.3 | C/C(=C\COc1ccc2ccc(=O)oc2c1)CC[C@@H](O)C(C)(C)O [Compound 1, Marmin] | 41.8 | 9.5 | 17.1 | – | – | – | – | – | – | – | – | –
347 ± 11.2 | CC(=CCOc1ccc2ccc(=O)oc2c1)CCC(O)C(C)(C)OC1OC(CO)C(O)C(O)C1O (stereo not drawn) [Compound 2, Pituranthoside] | 42.7 | – | 29.9 | 21 | 22 | – | – | – | – | – | – | –
171 ± 7.6 | CC(C)=CCOc1c2ccoc2cc2oc(=O)ccc12 [Compound 3, Isoimperatorin] | – | – | 43.2 | – | – | did not seem to be active | did not seem to be active | 6 to 12 | did not seem to be active | did not seem to be active | 6 to 12 | 6 to 12
